Inhibition data for five compounds are collected here from patent publication US20250380696A1, “METHOD FOR CONTROLLING UNDESIRED PLANTS AND PROMOTING GROWTH OF USEFUL PLANTS” (ISHIHARA SANGYO KAISHA, LTD., priority 2022, published 2025).

Read-outs that look alike come from different tables or passages of the source.

This test concerns Italian ryegrass (Lolium multiflorum). The test can be described thus: (16) Herbicidal effect test (comparative test), pot, spray at 2.5 to 3.0 leaf stage. The class given is in vivo. The settings on record: Lolium multiflorum, read-out: Growth inhibition rate (%) Measured value. The source says:
[formula] • X: growth inhibition rate when treated with α (g/ha) of compound A, • Y: growth inhibition rate when treated with β (g/ha) of compound B, • E: growth inhibition rate expected when treated with α (g/ha) of compound A and β (g/ha) of compound B (expected value).
Upland soil was put in a 1/1,000,000 hectare pot, and seeds of Italian ryegrass (Lolium multiflorum) were sown. When Italian ryegrass reached 2.5 to 3.0 leaf stage, a water-based suspension containing tiafenacil as the active ingredient, prepared by a conventional method for preparing a water-based suspension, a water-based suspension containing saflufenacil as the active ingredient (tradename: Sharpen, manufactured by BASF), a wettable powder containing fomesafen as the active ingredient, prepared by a conventional method for preparing a wettable powder, an emulsifiable concentrate containing fluthiacet-methyl as the active ingredient (tradename: Attackshot emulsifiable concentrate, manufactured by MARUWA Biochemical Co., Ltd.), a dry flowable containing carfentrazone-ethyl as the active ingredient (tradename: Task DF, manufactured by ISHIHARA SANGYO KAISHA, LTD.) or a water-based suspension containing pyraflufen-ethyl as the active ingredient (tradename: ECOPART flowable, manufactured by NIHON NOHYAKU CO., LTD.), and an emulsifiable concentrate containing S-metolachlor as the active ingredient (tradename: Dual Gold, manufactured by Syngenta) or a wettable powder containing metribuzin as the active ingredient (tradename: SENCOR wettable powder, manufactured by Bayer Crop Science), were diluted with water (in an amount corresponding to 200 liter per hectare) containing 0.5 vol % of an agricultural spreader (tradename: Destiny HC, manufactured by Winfield Solutions, LLC.) and sprayed by a small spray gun (model: W-101-132G, manufactured by ANEST IWATA Corporation). On the 4th day after spraying, the state of growth of the Italian ryegrass was visually observed, and the growth inhibition rate (%) was obtained in accordance with the evaluation standards described in the above (1) herbicidal effect test, and the results are shown in Table 16. Further, the expected value of the growth inhibition rate (%) was calculated in accordance with the Colby's formula described in the above (1) herbicidal effect test, and the results are also shown in Table 16.

Where [1] appears, read: Dose 12.5 g/ha, 4th day after spraying.

The term inhibition denotes the percentage by which the read-out fell short of the control. With `CCOC(=O)C(Cl)Cc1cc(-n2nc(C)n(C(F)F)c2=O)c(F)cc1Cl` (centres unmarked) [carfentrazone-ethyl], the inhibition at 12.5 g/ha worked out at 12%.

In the case of `COC(=O)CSc1cc(/N=c2\sc(=O)n3n2CCCC3)c(F)cc1Cl` [fluthiacet-methyl], the inhibition at 12.5 g/ha under setting [1] came to 12%.

`CS(=O)(=O)NC(=O)c1cc(Oc2ccc(C(F)(F)F)cc2Cl)ccc1[N+](=O)[O-]` [fomesafen]: the inhibition at 12.5 g/ha under setting [1] was determined as 8%.

As for `CCOC(=O)COc1cc(-c2nn(C)c(OC(F)F)c2Cl)c(F)cc1Cl` [pyraflufen-ethyl], the inhibition at 12.5 g/ha worked out at 25%.

`CC(C)N(C)S(=O)(=O)NC(=O)c1cc(-n2c(=O)cc(C(F)(F)F)n(C)c2=O)c(F)cc1Cl` [saflufenacil]: the inhibition at 12.5 g/ha under setting [1] was 33%.
